Usually half-life stands for how long it takes for the measured level to halve. Lower therefore signals fast loss.

3 compounds from patent publication USRE45313E1, “Exendin variant peptides” (priority 1999, dated 2014) can be followed below.

Data set [1] addresses dipeptidyl aminopeptidase IV (Sus scrofa, UniProt P22411). The data set can be described thus: In vitro stability in dipeptidyl aminopeptidase IV solution. The settings on record: pH 8; for half-life at 0.1 mg/ml: isolated enzyme dpp iv. The procedure: (§1) A SHT200D block heater from Stuart Scientific was used for heating of the peptide/enzyme solutions during the stability experiments. The degradation of the test compounds was studied at 37° C. in 50 mM phosphate buffer solutions of pH 7.4 containing leucine aminopeptidase (25 U/ml) or carboxypeptidase A (1 U/ml) or 100 mM ammoniumbicarbonate buffer of pH 8.0 containing dipeptidyl aminopeptidase IV (0.5 U/ml). Experiments were initiated by addition of an aliquot (100 μl) of a stock solution (1 mg/ml) of the peptide in water to 900 μl preheated enzyme solution in an Eppendorf microvial giving an initial concentration of 0.1 mg/ml (˜1.7·10−5-1.8·10−5 M) of the peptide. The peptide/enzyme solution was kept at 37° C. and at appropriate time intervals samples of 100 μl were withdrawn from the peptide/enzyme solution and mixed thoroughly with 20 μl 25% TFA in acetonitrile in order to stop the enzymatic degradation process. The inactivated samples were transferred to autosampler vials and analysed for content of intact test compound by HPLC as described below.
(§2) Samples from the stability experiments performed as described above were analysed by gradient HPLC analysis using the instrumentation described above and the following experimental conditions.
(§3) In vitro stability studies with the present peptides and peptide conjugates in the presence of selected proteolytic enzymes are applied as a tool for evaluating the protection of said peptides against proteolysis in vivo.
(§4) Water used was of highest quality obtained from a Milli-Q water treatment system (Millipore, Bedford, Mass., U.S.A.). Acetonitrile (ACN) was of super gradient quality obtained from Labscan Ltd. (Dublin, Ireland). […] Leucine aminopeptidase (EC 3.4.11.1), Carboxypeptidase A (EC 3.4.17.1) and Dipeptidyl peptidase (Dipeptidyl aminopeptidase IV, EC 3.4.14.5) were all obtained from Sigma (St. Louis, Mo., U.S.A.). Gradient HPLC analysis was done using a Hewlett Packard HP 1100 HPLC system consisting of a HP 1100 Binary Pump, a HP 1100 Autosampler, A HP 1100 Column Thermostat and a HP 1100 Variable Wavelength Detector. Hewlett Packard Chem-station for LC software (Rev. A.06.01) was used for instrument control and data acquisition. A Vydac 238TP54 (150×4.6 mm I.D.) column packed with 5 μm, C18, 300 Å

In a further data set the target is T1, carboxypeptidase A (Bos taurus, UniProt P00730).
T1 sequence (P00730 111-419): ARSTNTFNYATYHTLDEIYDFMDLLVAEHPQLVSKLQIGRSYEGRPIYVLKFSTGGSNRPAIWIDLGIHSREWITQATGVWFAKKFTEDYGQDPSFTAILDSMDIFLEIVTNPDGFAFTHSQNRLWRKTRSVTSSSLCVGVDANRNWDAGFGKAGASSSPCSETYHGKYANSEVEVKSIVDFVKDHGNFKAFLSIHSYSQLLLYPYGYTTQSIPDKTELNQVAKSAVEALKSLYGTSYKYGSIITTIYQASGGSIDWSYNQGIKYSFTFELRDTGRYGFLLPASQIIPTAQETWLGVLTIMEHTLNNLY
The data set can be described thus: In vitro stability in carboxypeptidase A solution. As to conditions: pH 7.4; for half-life at 0.1 mg/ml: isolated enzyme carboxypeptidase. On the procedure:
as §1, §2, §3, §4

The target in a further data set is T2, leucine aminopeptidase (Sus scrofa, UniProt P28839).
T2 sequence (P28839 1-519): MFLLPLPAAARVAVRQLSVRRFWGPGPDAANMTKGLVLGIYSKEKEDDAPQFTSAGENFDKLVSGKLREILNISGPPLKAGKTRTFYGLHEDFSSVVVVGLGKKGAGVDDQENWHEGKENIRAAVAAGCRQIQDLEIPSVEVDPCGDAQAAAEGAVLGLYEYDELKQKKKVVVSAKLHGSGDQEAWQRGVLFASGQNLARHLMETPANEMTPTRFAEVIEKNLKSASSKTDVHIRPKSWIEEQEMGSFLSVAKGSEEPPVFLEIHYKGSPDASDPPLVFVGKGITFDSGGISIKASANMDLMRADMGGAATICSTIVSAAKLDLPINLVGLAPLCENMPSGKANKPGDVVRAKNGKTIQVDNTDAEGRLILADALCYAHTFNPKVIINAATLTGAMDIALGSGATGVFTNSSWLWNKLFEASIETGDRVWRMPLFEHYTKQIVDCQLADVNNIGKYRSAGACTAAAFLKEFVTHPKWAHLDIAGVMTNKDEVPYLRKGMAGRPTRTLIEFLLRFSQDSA
Kind of data set: In vitro stability in leucine aminopeptidase solution. The settings on record: pH 7.4; for half-life at 0.1 mg/ml: isolated enzyme aminopeptidase. On the procedure: as §1, §2, §3, §4

dipeptidyl aminopeptidase IV, sequence (P22411 whole entry): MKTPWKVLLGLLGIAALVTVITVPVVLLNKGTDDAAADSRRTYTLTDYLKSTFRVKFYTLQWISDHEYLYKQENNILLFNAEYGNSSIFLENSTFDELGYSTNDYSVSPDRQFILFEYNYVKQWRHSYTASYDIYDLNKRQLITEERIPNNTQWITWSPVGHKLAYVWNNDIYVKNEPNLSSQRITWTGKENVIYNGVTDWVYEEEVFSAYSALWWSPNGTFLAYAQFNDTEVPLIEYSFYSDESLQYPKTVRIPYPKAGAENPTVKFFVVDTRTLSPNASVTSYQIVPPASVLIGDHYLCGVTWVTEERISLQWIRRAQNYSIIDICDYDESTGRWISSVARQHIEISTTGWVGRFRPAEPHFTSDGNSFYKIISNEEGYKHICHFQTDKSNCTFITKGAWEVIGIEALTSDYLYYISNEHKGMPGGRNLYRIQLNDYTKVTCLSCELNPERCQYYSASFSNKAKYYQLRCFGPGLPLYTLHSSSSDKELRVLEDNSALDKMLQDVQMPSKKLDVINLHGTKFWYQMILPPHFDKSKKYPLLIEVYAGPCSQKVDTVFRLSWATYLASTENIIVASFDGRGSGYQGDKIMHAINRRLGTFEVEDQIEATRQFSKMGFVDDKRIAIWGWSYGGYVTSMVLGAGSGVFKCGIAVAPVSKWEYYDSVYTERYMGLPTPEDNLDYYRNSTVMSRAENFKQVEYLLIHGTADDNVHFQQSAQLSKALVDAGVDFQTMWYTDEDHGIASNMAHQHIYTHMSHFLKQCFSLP

Consider `CC[C@H](C)[C@H](NC(=O)[C@H](Cc1ccccc1)NC(=O)[C@H](CCC(=O)O)NC(=O)[C@H](CCCCN)NC(=O)[C@H](C)NC(=O)[C@H](C)NC(=O)[C@H](CCC(N)=O)NC(=O)CNC(=O)[C@H](CCC(=O)O)NC(=O)[C@H](CC(C)C)NC(=O)[C@H](Cc1ccc(O)cc1)NC(=O)[C@H](CO)NC(=O)[C@H](CO)NC(=O)[C@@H](NC(=O)[C@H](CC(=O)O)NC(=O)[C@H](CO)NC(=O)[C@@H](NC(=O)[C@H](Cc1ccccc1)NC(=O)[C@@H](NC(=O)CNC(=O)[C@H](CCC(=O)O)NC(=O)CNC(=O)[C@@H](N)Cc1c[nH]cn1)[C@@H](C)O)[C@@H](C)O)C(C)C)C(=O)N[C@@H](C)C(=O)N[C@@H](Cc1c[nH]c2ccccc12)C(=O)N[C@@H](CC(C)C)C(=O)N[C@H](C(=O)N[C@@H](CCCCN)C(=O)NCC(=O)N[C@@H](CCCNC(=N)N)C(=O)N[C@@H](CCCCN)C(=O)N[C@@H](CCCCN)C(=O)N[C@@H](CCCCN)C(=O)N[C@@H](CCCCN)C(=O)N[C@@H](CCCCN)C(=O)N[C@@H](CCCCN)C(N)=O)C(C)C` [Compound 4], for which the half-life at 0.1 mg/ml in data set [1] is 4.87 h; at carboxypeptidase A, 2.42 h; at leucine aminopeptidase, ~36 h.

As for `CCCCCCCCCCCCCCCC(=O)NCCCC[C@H](NC(=O)[C@H](CCCNC(=N)N)NC(=O)CNC(=O)[C@H](CCCCN)NC(=O)[C@@H](NC(=O)[C@H](CC(C)C)NC(=O)[C@H](Cc1c[nH]c2ccccc12)NC(=O)[C@H](C)NC(=O)[C@@H](NC(=O)[C@H](Cc1ccccc1)NC(=O)[C@H](CCC(=O)O)NC(=O)[C@H](CCCCN)NC(=O)[C@H](C)NC(=O)[C@H](C)NC(=O)[C@H](CCC(N)=O)NC(=O)CNC(=O)[C@H](CCC(=O)O)NC(=O)[C@H](CC(C)C)NC(=O)[C@H](Cc1ccc(O)cc1)NC(=O)[C@H](CO)NC(=O)[C@H](CO)NC(=O)[C@@H](NC(=O)[C@H](CC(=O)O)NC(=O)[C@H](CO)NC(=O)[C@@H](NC(=O)[C@H](Cc1ccccc1)NC(=O)[C@@H](NC(=O)CNC(=O)[C@H](CCC(=O)O)NC(=O)CNC(=O)[C@@H](N)Cc1c[nH]cn1)[C@@H](C)O)[C@@H](C)O)C(C)C)[C@@H](C)CC)C(C)C)C(=O)N[C@@H](CCCCN)C(=O)N[C@@H](CCCCN)C(=O)N[C@@H](CCCCN)C(=O)N[C@@H](CCCCN)C(=O)N[C@@H](CCCCN)C(=O)N[C@@H](CCCCN)C(N)=O` [Compound 5], the half-life in data set [1] was 7.33 h; at carboxypeptidase A, > 48 h; on leucine aminopeptidase, > 72 h.

With `CC[C@H](C)[C@H](NC(=O)[C@H](Cc1ccccc1)NC(=O)[C@H](CCC(=O)O)NC(=O)[C@H](CCCCN)NC(=O)[C@H](C)NC(=O)[C@H](C)NC(=O)[C@H](CCC(N)=O)NC(=O)CNC(=O)[C@H](CCC(=O)O)NC(=O)[C@H](CC(C)C)NC(=O)[C@H](Cc1ccc(O)cc1)NC(=O)[C@H](CO)NC(=O)[C@H](CO)NC(=O)[C@@H](NC(=O)[C@H](CC(=O)O)NC(=O)[C@H](CO)NC(=O)[C@@H](NC(=O)[C@H](Cc1ccccc1)NC(=O)[C@@H](NC(=O)CNC(=O)[C@H](CCC(=O)O)NC(=O)CNC(=O)[C@@H](N)Cc1cnc[nH]1)[C@@H](C)O)[C@@H](C)O)C(C)C)C(=O)N[C@@H](C)C(=O)N[C@@H](Cc1c[nH]c2ccccc12)C(=O)N[C@@H](CC(C)C)C(=O)N[C@H](C(=O)N[C@@H](CCCCN)C(=O)NCC(=O)N[C@@H](CCCNC(=N)N)C(N)=O)C(C)C` [Compound (iii), reference compound], the half-life at 0.1 mg/ml in data set [1] was found to be 0.933 h; at carboxypeptidase A, 2.12 h; on leucine aminopeptidase, 11.6 h.
